In patent US8729128B2, “Lipoxin A4 protection for cornea endothelial cells” (Board of Supervisors of Louisiana State University And …, priority 2007, dated 2014):

Tests used:
Format in all cases: cell-based
[1] = test system: Rabbit corneal endothelial cells (RCEC); assay: Proliferation of rabbit corneal endothelial cells (Ki-67 antibody staining); conditions: rabbit CEC, 10 nM to 200 nM, DMEM/F12 0.5% FBS, 24 hours
From the text: (§1) Rabbit corneal endothelial cells (RCEC) and human corneal endothelial cells along with the Decemet's membrane were isolated from normal eyes (National Disease Research Interchange (NDRI), Philadelphia, Pa.), and the cells were suspended in Dulbecco's Modified Eagle Medium/Nutrient Mixture F-12 (DMEM/F12; GIBCO®, Grand Island, N.Y.) supplemented with 15% fetal bovine serum (FBS; GIBCO®), and seeded in 12-well plates. Cell phenotype was identified by using the endothelial cell marker anti-ZO-1 antibody (anti-zonula occludins-1 antibody) (Zymed Laboratories, Inc., San Francisco, Calif.). The localization of the lipoxin A4 (LXA4) receptor was detected with the polyclonal antibody FPRL1 (formyl peptide receptor-like 1; sc-13193, Santa Cruz Biotechnology, Inc., Santa Cruz, Calif.) (FIG. 1). […] The same was found with human endothelial cells. (Data not shown) This is the first time such receptor has been reported in cornea endothelial cells.
Proliferation of cornea endothelial cells was evaluated with anti-Ki-67 antibody (Zymed Laboratories, Inc., San Francisco, Calif.). Rabbit CEC cells were grown at 60-70% confluence, starved for 24 hours, and then treated with 15-epimer-lipoxin A4 (Calbiochem, Madison, Wis.) at different concentrations from 10 nM to 200 nM in DMEM/F12 containing 0.5% FBS for 24 hours. […] In addition, a similar experiment was conducted using lipoxin A4.

[2] = test system: Rabbit corneal endothelial cells (RCEC); assay: In vitro wound closure in confluent rabbit corneal endothelial cells; conditions: 10 nM and 100 nM, 24 hours
From the text: as §1
To measure in vitro wound closure, 12-day cultures of completely confluent RCEC in 12-well plates were wounded by linear scraping with a sterile plastic tip in the center of the well. Cells were incubated for 24 hours in DMEM/F12 with or without 15-epimer lipoxin A4 at 10 nM and 100 nM concentrations. The width of wound was calculated using Metavue Image software. […]

[3] = test system: human corneal endothelial cells; assay: Proliferation of cultured human corneal endothelial cells (Ki-67 immunofluorescence); conditions: human CEC, second passage, 100 nM, 24 hours
Protocol: (§2) Human eyeballs were obtained from NDRI (National Disease Research Interchange, Philadelphia, Pa.) and shipped to the laboratory on ice. The corneas were excised along the sclerocorneal rim, and the endothelia together with the Decemet's membrane were removed with tooth-free fine forceps under a dissection microscope. Pieces of the endothelia were seeded in DMEM/F12 (GIBCO®, Grand Island, N.Y.) supplemented with 15% FBS in 12-well plates. Cell phenotypes were identified and confirmed by using the endothelial cell marker anti-ZO-1 antibody (Zymed Laboratories, Inc., San Francisco, Calif.). […] This method of cell culture was used to establish cell cultures from several human eyeballs.
A secondary passage of human corneal endothelial cells derived from a donor was obtained as described above in Example 4. The cells were grown to 70% confluence in 24-well plate, and then starved for 24 hours. The starved cells were then incubated in DMEM/F12 containing 0.5% FBS with or without 15-epimer LxA4 (100 nM; from Calbiochem, Madison, Wis.) for 24 hours. […] Based on the rabbit studies above, it is believed that lipoxin A4 and its other analogs would show similar results as the 15-epimer lipoxin A4 used in these experiments.

[4] = test system: human corneal endothelial cells; assay: Cell migration in a wound of human corneal endothelial cells; conditions: human CEC, 100 nM, at 48 hours, p<0.05
Protocol: as §2
A secondary passage of human corneal endothelial cells derived from a donor was obtained as described above in Example 4. The cells were grown to 70% confluence in 24-well plate, and then starved for 24 hours. […] Wound healing was determined by phase contrast images collected by a camera attached to the microscope, and the result shown in FIG. 6B. The width of wound was calculated using Metavue Image software. The degree of cell migration was quantified by measuring the width of the wounded area at 24 and 48 hours, and the data shown in FIG. 6A. […]

SMILES	number of cells with Ki-67 staining (proliferation) [1]	wound healing (width of wound) [2]	cell proliferation (percentage of Ki-67-positive cells versus total cells) [3]	cell migration (width of the wounded area) [4]
CCCCC[C@@H](O)/C=C/C=C\C=C\C=C\[C@@H](O)[C@@H](O)CCCC(=O)O [15-epimer lipoxin A4]	increases with the concentration	promoted wound healing	significant increase	significant increase in cell migration
CCCCC[C@H](O)/C=C/C=C\C=C\C=C\[C@@H](O)[C@@H](O)CCCC(=O)O [lipoxin A4]	the same, both qualitatively and quantitatively	the same, both qualitatively and quantitatively		
